pIC50: −log10 of the molar value.
What was measured:
[1] = biological target: T1, purified recombinant HIV-1 reverse transcriptase (Human immunodeficiency virus type 1 group M subtype B, UniProt P04585); assay: Inhibition of HIV-1 reverse transcriptase enzyme ([3H]-SPA or flashplate assay); format: biochemical; conditions: recombinant RT expressed in Escherichia Coli; Poly(rA)-oligo(dT) [3H]-SPA or [3H]-flashplate assay; 5% final DMSO; read-out: IC50 (concentration at which the compound inhibited the reverse transcriptase by 50%)
T1 construct: purified recombinant HIV-1 reverse transcriptase (RT, EC, 2.7.7.49); made in house; host or cells: Escherichia coli
From the text: A. Inhibition of HIV-1 Reverse Transcriptase Enzyme
The reverse transcriptase activity of the compounds of the invention may be assayed as following. Using the purified recombinant HIV-1 reverse transcriptase (RT, EC, 2.7.7.49) obtained by expression in Escherichia Coli, a 96-well plate assay system was established for assaying a large number of samples using either the Poly(rA)-oligo(dT) Reverse Transcriptase [3H]-SPA enzyme assay system (Amersham NK9020) or the [3H]-flashplate enzyme assay system (NEN-SMP 103) and following the manufacturer's recommendations. The compounds were dissolved in 100% DMSO and diluted with the appropriate buffer to a 5% final DMSO concentration. The inhibitory activity was expressed in percent inhibition relative to the DMSO control.

melting point [°C]	SMILES	pIC50 [1]
70 to 72	CCc1nn(CC#N)c(CC)c1Oc1cc(Cl)cc(Cl)c1	
	CCc1nn(Cc2cc(=O)[nH]c(N)n2)c(CC)c1Oc1cc(Cl)cc(Cl)c1 [Example 7, 2-Amino-6-{[4-(3,5-dichlorophenoxy)-3,5-diethyl-1H-pyrazol-1-yl]methyl}-4(3H)-pyrimidinone]	4.41
	CCc1nn(CCO)c(CC)c1Oc1c(C)cc(C#N)cc1C [Example 20]	5.49
	CCc1nn(C2CNC2)c(CC)c1Oc1cc(Cl)cc(Cl)c1 [Example 51, 1-(3-Azetidinyl)-4-(3,5-dichlorophenoxy)-3,5-diethyl-1H-pyrazole]	6.61

Source: patent US8063044B2, “Pyrazole derivatives” (Pfizer Inc., priority 2001, dated 2011)
